Test results from the NIST ThermoML archive (doi:10.1021/acs.jced.7b00458).
Numbers after ± are expanded uncertainties.

Conditions: 100 kPa, Liquid; for electrical conductivity: Alternating current cell with electrodes; for viscosity: Concentric cylinders viscometry; for mass density: Vibrating tube method

Row | SMILES | electrical conductivity (298.15 K) [S/m] | viscosity (298.15 K) [mPa·s] | mass density (298.15 K) [kg/m3] | electrical conductivity (300.15 K) [S/m] | viscosity (300.15 K) [mPa·s] | mass density (300.15 K) [kg/m3] | electrical conductivity (306.15 K) [S/m] | viscosity (306.15 K) [mPa·s] | mass density (306.15 K) [kg/m3] | electrical conductivity (312.15 K) [S/m] | viscosity (312.15 K) [mPa·s] | mass density (312.15 K) [kg/m3] | electrical conductivity (318.15 K) [S/m] | viscosity (318.15 K) [mPa·s] | mass density (318.15 K) [kg/m3] | electrical conductivity (324.15 K) [S/m] | viscosity (324.15 K) [mPa·s] | mass density (324.15 K) [kg/m3] | electrical conductivity (330.15 K) [S/m] | viscosity (330.15 K) [mPa·s] | other results
1 | CCCC[N+]1(C)CCCC1.O=S(=O)([N-]S(=O)(=O)C(F)(F)F)C(F)(F)F | 0.393 ± 0.039 | 77.76 ± 0.66 | 1395 ± 1 | 0.423 ± 0.042 | 71.11 ± 0.56 | 1393 ± 1 | 0.52 ± 0.052 | 54.97 ± 0.36 | 1388 ± 1 | 0.638 ± 0.064 | 43.41 ± 0.31 | 1382 ± 1 | 0.772 ± 0.077 | 34.92 ± 0.25 | 1377 ± 1 | 0.924 ± 0.092 | 28.56 ± 0.2 | 1372 ± 1 | 1.08 ± 0.11 | 23.69 ± 0.17 | mass density (330.15 K): 1367 ± 1 kg/m3; electrical conductivity (336.15 K): 1.26 ± 0.13 S/m; viscosity (336.15 K): 19.91 ± 0.14 mPa·s; mass density (336.15 K): 1361 ± 1 kg/m3; viscosity (341.15 K): 17.37 ± 0.12 mPa·s; mass density (341.15 K): 1357 ± 1 kg/m3; electrical conductivity (348.15 K): 1.64 ± 0.16 S/m; viscosity (348.15 K): 14.53 ± 0.1 mPa·s; mass density (348.15 K): 1351 ± 1 kg/m3; viscosity (355.15 K): 12.31 ± 0.09 mPa·s; mass density (355.15 K): 1345 ± 1 kg/m3; electrical conductivity (361.15 K): 2.11 ± 0.21 S/m; viscosity (361.15 K): 10.78 ± 0.08 mPa·s; mass density (361.15 K): 1340 ± 1 kg/m3; viscosity (373.15 K): 8.272 ± 0.06 mPa·s; mass density (373.15 K): 1330 ± 1 kg/m3
2 | CCCC[N+]1(C)CCCCC1.O=S(=O)([N-]S(=O)(=O)C(F)(F)F)C(F)(F)F | 0.139 ± 0.017 | 188.9 ± 3.5 | 1382 ± 1 | 0.153 ± 0.018 | 168 ± 2.9 | 1380 ± 1 | 0.202 ± 0.024 | 120.2 ± 1.6 | 1375 ± 1 | 0.264 ± 0.032 | 88.67 ± 0.85 | 1370 ± 1 | 0.337 ± 0.04 | 67.13 ± 0.5 | 1365 ± 1 | 0.424 ± 0.051 | 52.01 ± 0.34 | 1360 ± 1 | 0.519 ± 0.062 | 41.12 ± 0.29 | mass density (330.15 K): 1355 ± 1 kg/m3; electrical conductivity (336.15 K): 0.626 ± 0.075 S/m; viscosity (336.15 K): 33.12 ± 0.23 mPa·s; mass density (336.15 K): 1349 ± 1 kg/m3; viscosity (341.15 K): 27.98 ± 0.2 mPa·s; mass density (341.15 K): 1345 ± 1 kg/m3; electrical conductivity (348.15 K): 0.876 ± 0.1 S/m; viscosity (348.15 K): 22.51 ± 0.16 mPa·s; mass density (348.15 K): 1339 ± 1 kg/m3; viscosity (355.15 K): 18.36 ± 0.13 mPa·s; mass density (355.15 K): 1333 ± 1 kg/m3; electrical conductivity (361.15 K): 1.19 ± 0.14 S/m; viscosity (361.15 K): 15.62 ± 0.11 mPa·s; mass density (361.15 K): 1329 ± 1 kg/m3; viscosity (373.15 K): 11.62 ± 0.08 mPa·s; mass density (373.15 K): 1319 ± 1 kg/m3
3 | CC[P+](CC)(CC)CCOC.O=S(=O)([N-]S(=O)(=O)C(F)(F)F)C(F)(F)F | 0.384 ± 0.046 | 48.14 ± 0.34 | 1378 ± 1 | 0.411 ± 0.049 | 44.28 ± 0.31 | 1376 ± 1 | 0.498 ± 0.06 | 34.95 ± 0.25 | 1370 ± 1 | 0.608 ± 0.073 | 28.1 ± 0.2 | 1365 ± 1 | 0.719 ± 0.086 | 22.97 ± 0.16 | 1360 ± 1 | 0.848 ± 0.1 | 19.04 ± 0.14 | 1354 ± 1 | 0.987 ± 0.12 | 16.01 ± 0.11 | mass density (330.15 K): 1349 ± 1 kg/m3; electrical conductivity (336.15 K): 1.13 ± 0.14 S/m; viscosity (336.15 K): 13.62 ± 0.1 mPa·s; mass density (336.15 K): 1344 ± 1 kg/m3; viscosity (341.15 K): 11.98 ± 0.09 mPa·s; mass density (341.15 K): 1339 ± 1 kg/m3; electrical conductivity (348.15 K): 1.45 ± 0.17 S/m; viscosity (348.15 K): 10.15 ± 0.07 mPa·s; mass density (348.15 K): 1333 ± 1 kg/m3; viscosity (355.15 K): 8.692 ± 0.062 mPa·s; mass density (355.15 K): 1327 ± 1 kg/m3; electrical conductivity (361.15 K): 1.84 ± 0.22 S/m; viscosity (361.15 K): 7.672 ± 0.055 mPa·s; mass density (361.15 K): 1322 ± 1 kg/m3; viscosity (373.15 K): 5.99 ± 0.044 mPa·s; mass density (373.15 K): 1311 ± 1 kg/m3
4 | CCCCC[P+](CC)(CC)CC.O=S(=O)([N-]S(=O)(=O)C(F)(F)F)C(F)(F)F | 0.21 ± 0.025 | 85.3 ± 0.79 | 1304 ± 1 | 0.223 ± 0.027 | 77.43 ± 0.65 | 1302 ± 1 | 0.286 ± 0.034 | 58.68 ± 0.4 | 1297 ± 1 | 0.358 ± 0.043 | 45.42 ± 0.32 | 1292 ± 1 | 0.435 ± 0.052 | 35.82 ± 0.25 | 1287 ± 1 | 0.521 ± 0.063 | 28.79 ± 0.2 | 1282 ± 1 | 0.612 ± 0.073 | 23.5 ± 0.17 | mass density (330.15 K): 1277 ± 1 kg/m3; electrical conductivity (336.15 K): 0.711 ± 0.085 S/m; viscosity (336.15 K): 19.46 ± 0.14 mPa·s; mass density (336.15 K): 1272 ± 1 kg/m3; viscosity (341.15 K): 16.79 ± 0.12 mPa·s; mass density (341.15 K): 1268 ± 1 kg/m3; electrical conductivity (348.15 K): 0.917 ± 0.11 S/m; viscosity (348.15 K): 13.86 ± 0.1 mPa·s; mass density (348.15 K): 1262 ± 1 kg/m3; viscosity (355.15 K): 11.58 ± 0.08 mPa·s; mass density (355.15 K): 1256 ± 1 kg/m3; electrical conductivity (361.15 K): 1.17 ± 0.14 S/m; viscosity (361.15 K): 10.02 ± 0.07 mPa·s; mass density (361.15 K): 1251 ± 1 kg/m3; viscosity (373.15 K): 7.531 ± 0.054 mPa·s; mass density (373.15 K): 1241 ± 1 kg/m3
